Test results reported in publication PMC6270011, “Design and Synthesis of Arylthiophene-2-Carbaldehydes via Suzuki-Miyaura Reactions and Their Biological Evaluation” (Molecules, 2013).
Values after ≈ are worked out from the molar mass of the structure shown. Where two headings read alike, the source gives them in different places.

Legend:
[1] = Nitric oxide (NO) scavenging assay; format: biochemical
Excerpt: Nitric oxide (NO) is a free radical causing inflammatory disorders and cancer in the human body when sodium nitroprusside decomposes to produce nitric oxide. The antioxidant activity of various thiophene derivatives has been reported in the literature and it has also been observed that compounds with high antioxidant activity served as antitumor agents. The newly synthesized compounds reacted directly with nitric oxide and inhibited nitrite formation in an excellent way.
The reaction mixtures comprising sample solution (2 µL), phosphate buffer (17 µL) and sodium nitroprusside (20 µL) were incubated at 37 °C for 2 h in well plates. Then Griess reagent (20 µL, 0.3% sulphanilic acid in glacial acetic acid + 0.1% naphthylethylenediamine (NED): equal volumes of both solutions mixed just before use) was added to each well plate and the mixture kept at room temperature for 20 min to develop the color. The absorbance was measured at 528 nm by using an ELISA reader. The results were processed using Gen 5 software. All the reactions were performed in triplicate. Positive control (containing known antioxidant) and control (containing all samples) were run in parallel. Negative control was used to calibrate the instrument. The % age antioxidant activity was determined by using the following formula: % antioxidant activity = [(Absorbance of control − absorbance of sample)/(Absorbance of control)] × 100

Pseudomonas aeruginosa = assay: Antibacterial activity (disc / inhibition zone) against Pseudomonas aeruginosa; conditions: for IC50: read-out: IC50 against Pseudomonas aeruginosa; for zone of inhibition at 25 µg/mL / zone of inhibition at 50 µg/mL: read-out: Inhibition zone, P. aeruginosa
Bacillus subtilis = assay: Antibacterial activity (disc / inhibition zone) against Bacillus subtilis; conditions: for zone of inhibition at 25 µg/mL / zone of inhibition at 50 µg/mL: read-out: Inhibition zone, B. subtilis
Salmonella typhi = assay: Antibacterial activity (disc / inhibition zone) against Salmonella typhi; conditions: Salmonella enterica; for zone of inhibition at 25 µg/mL / zone of inhibition at 50 µg/mL: read-out: Inhibition zone, S. typhi; for IC50: read-out: IC50 against Salmonella typhi
Staphylococcus aureus = assay: Antibacterial activity (disc / inhibition zone) against Staphylococcus aureus; conditions: for zone of inhibition at 25 µg/mL / zone of inhibition at 50 µg/mL: read-out: Inhibition zone, S. aureus
[2] = system: human red blood cells (erythrocytes); format: cell-based
Procedure: Three mL of freshly obtained human blood was placed in heparinized tubes to avoid coagulation, gently mixed and poured into a sterile 15 mL Falcon tube and centrifuged for 5 min at 1,000 ×g. The supernatant was discarded and red blood cells were washed three times with chilled (4 °C) sterile isotonic phosphate buffer saline pH 7.4 (5 mL). Erythrocytes (10^8 cells/mL) were maintained for each assay by dilution with phosphate buffer saline. Erythrocytes were counted on a heamacytometer. Twenty µL of each compound was mixed with red blood cells suspension (180 μL) separately. The samples were incubated at 37 °C for 35 min. The samples were placed on ice for 5 min and then agitated at 1,000 ×g for 5 min. Supernatant (100 µL) were taken from each tube and diluted 10 times with chilled (4 °C) phosphate buffered saline. Triton X-100 (0.1% v/v) was taken as a positive control and PBS was negative control and then subjected to the same process. […] The percentage RBSs lyses for each sample was calculated.

Escherichia coli = assay: Antibacterial activity (disc / inhibition zone) against Escherichia coli; conditions: for zone of inhibition at 25 µg/mL / zone of inhibition at 50 µg/mL: read-out: Inhibition zone, E.coli; for IC50: read-out: IC50 against Escherichia coli
Shigella dysenteriae = assay: Antibacterial activity (disc / inhibition zone) against Shigella dysenteriae; conditions: read-out: Inhibition zone, S. dysenteriae
[3] = 25 µg/mL, read-out: % Activity at 25 µg (NO scavenging)
[4] = 50 µg/mL, read-out: % Activity at 50 µg (NO scavenging)
[5] = 100 µg/mL, read-out: % Activity at 100 µg (NO scavenging)
[6] = human erythrocytes, 37 °C, 35 min

Molecule | inhibition [1, 3] [%] | inhibition [1, 4] [%] | inhibition [1, 5] [%] | zone of inhibition at 25 µg/mL (Pseudomonas aeruginosa) [mm] | zone of inhibition at 50 µg/mL (Pseudomonas aeruginosa) [mm] | zone of inhibition at 25 µg/mL (Bacillus subtilis) [mm] | zone of inhibition at 50 µg/mL (Bacillus subtilis) [mm] | IC50 (NO scavenging) [1] [mg/L] | zone of inhibition at 25 µg/mL (Salmonella typhi) [mm] | zone of inhibition at 50 µg/mL (Salmonella typhi) [mm] | zone of inhibition at 25 µg/mL (Staphylococcus aureus) [mm] | zone of inhibition at 50 µg/mL (Staphylococcus aureus) [mm] | Haemolytic activity, in words [2] | Haemolytic activity, percentage of lysis (Average ± SD) [2, 6] [%] | zone of inhibition at 25 µg/mL (Escherichia coli) [mm] | zone of inhibition at 50 µg/mL (Escherichia coli) [mm] | zone of inhibition at 25 µg/mL (Shigella dysenteriae) [mm] | zone of inhibition at 50 µg/mL (Shigella dysenteriae) [mm] | melting point [°C] | further results
O=C1O[C@H]([C@@H](O)CO)C(O)=C1O [Ascorbic Acid, ascorbic acid, reference compound] | 40 ± 0.038 | 61 ± 0.004 | 77 ± 0.001 | – | – | – | – | – | – | – | – | – | – | – | – | – | – | – | – | –
N#Cc1cc(-c2csc(C=O)c2)cc(C(F)(F)F)c1 [2d, 3-(5-Formylthiophene-3-yl)-5-(trifloromethyl)benzonitrile] | 12 ± 0.025 | 58 ± 0.01 | 73 ± 0.0028 | 46 ± 0.02 | 67 ± 0.01 | 28.3 ± 0.75 | 58 ± 0.35 | 45.6 (≈ 162 µM) | 30 ± 0.15 | 64 ± 0.05 | 33 ± 0.01 | 63 ± 0.31 | lowest haemolytic property | 3.306 ± 0.058 | 32.5 ± 0.12 | 40.5 ± 0.19 | 35 ± 0.15 | 63 ± 0.31 | 252 to 254 | IC50 (Pseudomonas aeruginosa): 29.7 mg/L (≈ 106 µM)
O=Cc1cc(-c2ccc(Cl)c(Cl)c2)cs1 [2h, 4-(3,4-Dichlorophenyl)thiophene-2-carbaldehyde] | 13 ± 0.002 | 20 ± 0.025 | 35 ± 0.077 | 40 ± 0.041 | 67 ± 0.021 | 28 ± 0.03 | 58 ± 0.22 | – | 30 ± 0.13 | 57 ± 0.01 | 39.4 ± 0.05 | 59.4 ± 0.45 | – | 3.487 ± 0.054 | 32 ± 0.03 | 60 ± 0.24 | 29 ± 0.19 | 59.4 ± 0.45 | 158 to 160 | –
[H]/N=C(/N)N[C@H]1[C@H](O)[C@@H](O)[C@H](O[C@@H]2O[C@@H](C)[C@](O)(C=O)[C@H]2O[C@@H]2O[C@@H](CO)[C@H](O)[C@@H](O)[C@@H]2NC)[C@@H](N/C(N)=N\[H])[C@@H]1O [Streptomycin, streptomycin, reference compound] | – | – | – | 41.5 ± 0.002 | 63 ± 0.002 | 34 ± 0.015 | 53 ± 0.001 | – | 33 ± 0.001 | 53 ± 0.001 | 15 ± 0.034 | 55 ± 0.03 | – | – | 29.3 ± 0.002 | 63 ± 0.002 | 48 ± 0.05 | 55 ± 0.034 | – | IC50 (Pseudomonas aeruginosa): 35.2 mg/L (≈ 60.5 µM)
O=Cc1cc(-c2ccc(Cl)s2)cs1 [2c] | 18 ± 0.007 | 40 ± 0.038 | 55 ± 0.04 | 45 ± 0.019 | 60 ± 0.009 | 36.2 ± 0.05 | 60 ± 0.01 | 83.3 (≈ 364 µM) | 34 ± 0.05 | 64 ± 0.5 | 34 ± 0.01 | 64 ± 0.11 | – | 3.934 ± 0.095 | 14 ± 0.14 | 24 ± 0.17 | 35 ± 0.01 | 64 ± 0.11 | 229 to 231 | IC50 (Bacillus subtilis; read-out: IC50 against Bacillus subtilis): 39.4 mg/L (≈ 172 µM)
Cc1ccc(-c2csc(C=O)c2)s1 [2j, 5-Methyl-2,3-bisthiophene-5-carbaldehyde] | 15 ± 0.021 | 50 ± 0.024 | 65 ± 0.013 | 36 ± 0.16 | 69 ± 0.16 | 27.1 ± 0.01 | 60 ± 0.05 | 49.3 (≈ 237 µM) | 29 ± 0.1 | 63 ± 0.1 | 35.2 ± 0.01 | 65 ± 0.09 | – | 4.135 ± 0.095 | 26 ± 0.03 | 66 ± 0.43 | 35 ± 0.2 | 65 ± 0.09 | 218 to 220 | IC50 (Salmonella typhi): 37.4 mg/L (≈ 180 µM); IC50 (Staphylococcus aureus; read-out: IC50 against Staphylococcus aureus): 37.4 mg/L (≈ 180 µM); IC50 (Escherichia coli): 40 mg/L (≈ 192 µM)
COc1ccc(-c2csc(C=O)c2)cc1 [2f, 4-(4-Methoxyphenyl)thiophene-2-carbaldehyde] | 5 ± 0.005 | 10 ± 0.028 | 25 ± 0.005 | 34 ± 0.04 | 64 ± 0.04 | 24.4 ± 0.03 | 54 ± 0.23 | – | 36 ± 0.01 | 63 ± 0.11 | 34 ± 0.05 | 61.4 ± 0.56 | highest haemolytic action | 6.083 ± 0.143 | 9 ± 0.03 | 8 ± 0.01 | 42 ± 0.7 | 61.4 ± 0.56 | 68 to 70 | IC50 (Salmonella typhi): 37.9 mg/L (≈ 174 µM)
Triton X-100 [Triton-X 100, reference compound] | – | – | – | – | – | – | – | – | – | – | – | – | – | – | – | – | – | – | – | Haemolytic activity, percentage of lysis (Average ± SD) [2]: 99.824 ± 0.536%
Cc1ccc(-c2csc(C=O)c2)cc1 [2e, 4-p-Tolylthiophene-2-carbaldehyde] | -15 ± 0.04 | -12 ± 0.037 | 3 ± 0.0014 | 44 ± 0.02 | 60 ± 0.03 | 22.4 ± 0.13 | 54 ± 0.17 | – | 22.2 ± 0.14 | 53 ± 0.12 | 28 ± 0.2 | 58 ± 0.01 | lowest haemolytic property | 3.356 ± 0.075 | 32 ± 0.05 | 62 ± 0.01 | 41 ± 0.05 | 58 ± 0.01 | 58 to 60 | IC50 (Escherichia coli): 40 mg/L (≈ 198 µM)
O=Cc1cc(-c2ccccc2)cs1 [2a, 4-Phenylthiophene-2-carbaldehyde] | 12 ± 0.037 | 33 ± 0.0035 | 48 ± 0.049 | – | 67.6 ± 0.001 | – | 61 ± 0.14 | 92.5 (≈ 491 µM) | – | 61 ± 0.13 | – | 63 ± 0.18 | – | 3.947 ± 0.078 | – | 47 ± 0.15 | – | 63 ± 0.18 | 57 to 59 | –
O=Cc1cc(-c2ccc(F)c(Cl)c2)cs1 [2i, 4-(3-Chloro-4-fluorophenyl)thiophene-2-carbaldehyde] | 12 ± 0.05 | 57 ± 0.0021 | 72 ± 0.009 | 42 ± 0.04 | 66 ± 0.01 | 36.5 ± 0.04 | 56 ± 0.5 | 46.1 (≈ 192 µM) | 33 ± 0.25 | 59.5 ± 0.25 | 27.8 ± 0.12 | 58 ± 0.16 | highest haemolytic action | 9.779 ± 0.095 | 16 ± 0.043 | 26 ± 0.023 | 43 ± 0.105 | 58 ± 0.16 | 108 to 110 | –
